Laboratory results as given in patent US20100028407A1, “LAYERED BIO-ADHESIVE COMPOSITIONS AND USES THEREOF” (UNIVERSITY OF LOUISVILLE RESEARCH FOUNDATION, INC., priority 2006, published 2010).

Key:
[1] = Closure of 3 mm corneal wounds by impregnated gelatin sheets, Seidel test under rising intraocular pressure; design: species or system porcine; settings: about 100-μm gelatin sheet (50% gelatin, 300 mM sucrose) impregnated with rose bengal 1.5 mM (light pipe 3 min), glyceraldehyde 0.2 M (no illumination) or riboflavin 0.1% (UV 370 nm); average±standard deviation
Procedure: Gelatin blocks were prepared by the following method: Gelatin (300 Blooms, Sigma, St. Louis, Mo.) was dissolved in Minimal Essential Medium (MEM, Gibco, Grand Island, N.Y.), 300 mM sucrose was added and the solution was sterilized with gamma irradiation (2.7 Megarads). Addition of 300 mM sucrose maintained the gelatin sheets in a solid phase at temperatures below 37° C. and allowed the gelatin sheet to melt within minutes at body temperature once the gelatin sheet were placed over the wound. Gelatin blocks were prepared at a concentration of about 50% (weight/volume of MEM), which were firm enough to manipulate during the surgery by the surgeon. These gelatin blocks have rigidity of 300 blooms. Once the gelatin/sucrose solution in MEM was sterilized, the solution was poured into 35-mm tissue culture dish (Falcon #3001, Becton Dickinson, Lincoln Park, N.J.) and allowed to cool for 15 minutes to solidify at room temperature. […]
Rose bengal was activated with an endoilluminator light pipe for 3 minutes. […] After each elevation, the treated wound was checked for the presence of any possible wound leak with the Seidel test, and the highest intraocular pressure at which the wound remained intact was recorded. This experiment was repeated three times on three different occasions and the results were calculated as average±standard deviation. […]

PRC, CC and RPE cells = test: Live-Dead cell viability after photo-melding of Bruch's membrane patch graft in eyecup followed by ambient light; assay type: cell-based, human; settings: 1.5 mM rose bengal; 6 hours ambient light at room temperature
Procedure: In order to assess the additive effect of subsequent ambient light on cell toxicity anterior segments of three eyecups were removed and a 20-D PMMA PC IOL was sutured into the ciliary sulcus. Sensory retina was carefully lifted off and foveal RPE cells were removed mechanically. Exposed Bruch's membrane was intentionally damaged and a 6-mm Bruch's membrane patch graft photo-melded by photo-exciting 1.5 mM of rose bengal through sensory retina. After the photo-melding procedure, the eyecup was maintained at room temperature for 6 hours exposed to ambient light. At the end of this period cellular viability was assessed with Live-Dead assay. Again, PBS treated eyes served as control.

[2] = test system: photo receptor cells (PRC), choriocapillaris (CC) and RPE cells; test: Live-Dead cell viability immediately after photo-melding conditions; assay type: cell-based; settings: control PBS
Procedure: Cellular viability of photo receptor cells (PRC), choriocapillaris (CC) and RPE cells were determined with the Live-Dead assay (Molecular Probes, Portland, Oreg.) to determine the safety of the photo-melding procedure. Human cadaver eyes were obtained from an eye bank. Anterior segments were removed and sensory retina and RPE-CC complex were dissected out. Tissue samples of 6-mm size were cut from each layer and placed in 1.5 mM and 10 mM rose bengal solution. Using similar parameters photo-melding conditions were mimicked. Viability was assessed immediately after exposure. Samples exposed to similar lighting conditions in PBS were taken as control.

[3] = TEM and SEM ultrastructure of photo-melded Bruch's membrane explants; settings: 0.1 to 20 mM tested
Procedure: Bruch's membrane explants were photo-melded with varying concentrations of rose bengal, ranging from 0.1 to 20 mM. Transmission electron microscopy (TEM) and scanning electron microscopy (SEM). […] At this concentration, cross linked collagen fibers twisted onto themselves and formed macro bundles. At concentrations higher that 1.5 mM, attenuation of individual collagen fibers and frequent breaks lead to the disruption of collagen framework resulting in hollow spaces at 10 and 20 mM concentrations. Starting from 0.1 mM concentration, the number of electron-dense collagen fibers increased as the concentration of rose bengal increased, possibly due to increased oxidation and subsequent better attraction of positively charged lead and osmium on the collagen fiber. At concentrations higher than 10 mM electron dense haze started to accumulate around the collagen debris.

[4] = Attachment strength of photo-melded inner collagenous layer explants in a buoyancy chamber; design: species or system human; settings: for Attachment strength: 35 mW light at 40 mm
Procedure: Bruch's membrane explants were harvested from cadaver eyes. RPE-Bruch's membrane-Choroid complexes were dissected out under a microscope; washed with PBS three times and kept in 0.02N ammonium hydroxide for 30 minutes to lyse all cellular components. Three cycles of PBS washing followed by removal of the basal lamina mechanically as described before. Briefly, a full thickness circumferential incision was made posterior to the ora serrata and the anterior segment and vitreous were removed carefully. The posterior pole of each eye cup was inspected visually with direct and retroillumination under a dissecting microscope and globes were discarded if there was any evidence of subretinal blood, previous surgery or any extensive structural or vascular alteration of the posterior segment due to a disease process, such as proliferative diabetic retinopathy or proliferative vitreoretinopathy. The eyecups were put in carbon dioxide-free Media (Gibco) and a scleral incision was made 3 mm from the limbus and extended circumferentially. Four radial incisions were then made and the sclera was peeled away. […] The choroid-Bruch's membrane-RPE complex was then carefully peeled towards the optic disc and removed after trimming its attachment to the optic nerve. Native RPE were removed by bathing the explant with 0.02 N ammonium hydroxide in a 50-mm polystyrene Petri dish (Falcon, Becton Dickinson, Lincoln Park, N.J.) for 20 minutes at room temperature followed by washing three times in phosphate-buffered saline (PBS). The Bruch's membrane explant from the fellow eye was prepared by removing the RPE with 0.02N ammonium hydroxide as described above. The Bruch's membrane explant was then floated in CFM over a 12-18 micron thick hydrophilic polycarbonate-polyvinylpyrrolidone membrane with 0.4 micron pores (Millipore, Bedford, Mass.) with the basal lamina facing towards the membrane. The curled edges were flattened from the choroidal side with fine forceps without touching Bruch's membrane. Four percent agarose (Sigma Chemical Co., St. Louis, Mo.) was poured on the Bruch's membrane-choroid complex from the choroidal side and the tissue was kept at 4° C. for 2-3 minutes to solidify the agarose. The hydrophilic membrane was peeled off along with the basal lamina of the RPE thus exposing the bare inner collagenous layer. 6 mm circular buttons were then trephined from peripheral Bruch's membrane on a Teflon sheet and placed on 4% agarose at 37° C. in non-treated polystyrene wells of a 96 well plate (Corning Costar Corp., Cambridge, Mass.). The agarose solidified within 2-3 minutes at room temperature, thus stabilizing the Bruch's membrane explant. The wells were gently rinsed with PBS three times for 5 minutes, gamma sterilized (20,000 rads) and then stored at 4° C. Explants with exposed ICL were then cut with a 6-mm trephine and stored in sterile PBS after gamma sterilization at 20,000 rads. At the time of use ICL surface was painted with rose bengal (at concentrations as provided in FIG. 2) and two patches were faced to each other at their ICL surface. Extra fluid was removed with a Whatman #30 filter paper and the two surfaces were apposed. […] Exposure time was limited to three minutes not to exceed photo-toxicity thresholds. […] Exposed inner collagenous layers were painted with rose bengal and photo-[…] to each other by photo-exciting rose bengal with a white light source. The light intensity matched the vitrectomy endo illuminator and exposure was limited to 3 minutes to avoid retinal photo-toxicity. […] Attached grafts were kept under 0.21 mN (milliNewtons) of constant traction for 3 days to test the stability of the […] process.

Structure (SMILES) | Highest intraocular pressure at which the wound remained intact [1] [mmHg] | PRC, CC and RPE cell viability after photo-melding and ambient light exposure (PRC, CC and RPE cells) | PRC, CC and RPE cell viability immediately after photo-melding procedure ([2]; 1.5 mM rose bengal) | PRC, CC and RPE cell viability immediately after photo-melding procedure ([2]; 10 mM rose bengal) | Concentration at which collagen crosslinking reached its maximum [3] [mM] | Attachment strength ([4]; 1.5 mM rose bengal, 3 min) [N/m^2] | Attachment strength ([4]; 5 mM rose bengal, 3 min) [N/m^2] | Attachment strength ([4]; 10 mM rose bengal, 3 min) [N/m^2] | Attachment strength ([4]; 20 mM rose bengal, 3 min) [N/m^2] | Minimum concentration to attain strong photo-melding of human inner collagenous layer grafts ([4]; 3 min, 35 mW light) [mM] | Concentration resulting in photo-melding of exposed human inner collagenous layers ([4]; 3 min exposure to 35 mW of light at 40 millimeters) | Stability of photo-melded grafts under continuous traction ([4]; 72 hours of observation at 37° C., 0.21 mN constant traction)
O=CC(O)CO (stereo not shown) [glyceraldehyde] | 66.1±6.0 |  |  |  |  |  |  |  |  |  |  | 
O=C([O-])c1c(Cl)c(Cl)c(Cl)c(Cl)c1-c1c2cc(I)c(=O)c(I)c-2oc2c(I)c([O-])c(I)cc12.[Na+].[Na+] [rose bengal, tetratodotetrachioro fluorescein disodium salt] | 75.6±5.8 | did not effect the viability | no adverse side effect | no adverse side effect | 1.5 | 14.1 | 14.1 | 5.7 | 2.83 | 1.5 | above 0.1 mM | remained attached
